Measured values as given in US20240382465A1, “AROMATIC ACETYLENE DERIVATIVE, AND PREPARATION METHOD THEREFOR AND USE THEREOF” (priority 2021, published 2024).
Converted amounts (≈) assume the structure as drawn. Like-named read-outs stand apart in the source and are kept apart here.

Key:
[1] = target: recombinant Pseudomonas aeruginosa LpxC (Pseudomonas aeruginosa (strain ATCC 15692 / DSM 22644 / CIP 104116 / JCM 14847 / LMG 12228 / 1C / PRS 101 / PAO1), UniProt P47205); assay: Inhibition of LpxC enzymatic activity (fluorescamine assay); format: biochemical
Description: The degree of inhibition of the enzymatic activity of recombinant Pseudomonas aeruginosa LpxC by the compounds of the present disclosure under in vitro conditions was determined using the following method.
The experimental procedure is briefly described as follows: The test compound was first dissolved in DMSO to prepare a 10 mM stock solution. The reaction was carried out in a 96-well microplate. First, 20 μL of recombinant Pseudomonas aeruginosa LpxC (purchased from Signalway Antibody, product number AP74647-2) was added to each well, with a final concentration of 5 nM. 5 μL of the compound to be tested was then added, and the compound was diluted 4 times to 8 concentration points with a concentration range of 0.61-10,000 nM. 5 μL of LpxC substrate UDP-3-O—(R-3-hydroxydecanoyl)-GlcNAc (purchased from Biosynth Carbosynth, product number: mu75071) was added, with a final concentration of the substrate of 10 μM. The plate was incubated at 25° C. for 120 minutes. Then 20 μL of 2.0 mg/mL fluorescamine (purchased from sigmaaldrich, product number: F9015, solvent: 1:1 dimethylformamide/acetonitrile) was added to the reaction system, and mixed well for 10 minutes of reaction. Finally, 50 μL of 200 mM sodium phosphate buffer (pH 8.0) was added to terminate the reaction. Reading was carried out using a microplate reader (BMG), and the excitation and emission wavelengths were 390 and 495 nm respectively. By comparing with the fluorescence intensity ratio of the control group ([…]), the percentage inhibition rate of the compound at each concentration was calculated.

[2] = test system: E. coli ATCC 25922; assay: Antibacterial activity, MIC by broth microdilution (CLSI); format: cell-based; settings: Escherichia coli
Description: (§1) The in vitro minimum inhibitory concentration (MIC) was determined in accordance with the CLSI guidelines, and was measured using the broth microdilution method.
(§2) The experimental process is briefly described as follows: The test compound was dissolved in DMSO to prepare a […] stock solution, which was then prepared into 11 twice-diluted 100× high-concentration working solutions (the final concentration of the system was 64 μg/mL-0.06 μg/mL) using DMSO. The strains (K. pneumoniae ATCC13883 and E. coli ATCC 25922) frozen in −80° C. glycerol were inoculated into solid agar medium, placed in an incubator at 35° C. for 18-24 hours of incubation. After the preparation of strains was completed, an appropriate amount of solid plate culture was collected, resuspended in physiological saline, and mixed well. The bacterial suspension was adjusted to a suitable turbidity using a turbidity meter, containing approximately 1×10^8 cfu/mL bacteria. Then the bacterial suspension with the adjusted turbidity was diluted to a bacterial concentration of 5×10^5 cfu/ml using the culture medium for measurement, to complete the preparation of the inoculum solution. 198 μL of the inoculum solution was inoculated into a 96-well plate, and then added with 2 μL of a 100× high-concentration working solution of the compound. Then the 96-well plate was placed at 35° C. for 18 to 24 hours of incubation.

[3] = test system: K. pneumoniae ATCC13883; assay: as above; format: cell-based; settings: Klebsiella pneumoniae
Description: as §1, §2

[4] = recombinant P. aeruginosa LpxC 5 nM, substrate 10 μM, 25° C., 120 minutes, read-out: IC50
[5] = ATCC25922, E. coli ATCC 25922, 35° C., 18 to 24 hours, read-out: MIC(E. coli)
[6] = K. pneumoniae ATCC13883, 35° C., 18 to 24 hours, read-out: MIC(K. Pneumoniae)

Row | SMILES | IC50 [1, 4] [nM] | MIC [2, 5] [µg/mL] | MIC [3, 6] [µg/mL] | IC50 [1] [nM] | MIC ([2]; ATCC25922, read-out: MIC(E. coli)) [µg/mL] | MIC ([3]; ATCC13883, read-out: MIC(K. Pneumoniae)) [µg/mL]
1 | C[C@H](O)c1nccn1Cc1cc(-c2ccc(C#Cc3ccc(C(=O)O)cc3)cc2)on1 [Example 24, (S)-4-((4-(3-((2-(1-hydroxyethyl)-1H-imidazol-1-yl)methyl)isoxazol-5-yl)phenyl)ethynyl)benzoic acid] | 22.2 | 4 (≈ 9.68 µM) | 8 (≈ 19.4 µM) | – | – | –
2 | C[C@H](O)c1nccn1Cc1cc(-c2ccc(C#Cc3ccc(C(=O)NCCO)cc3)cc2)on1 [Example 25, (S)-N-(2-Hydroxyethyl)-4-((4-(3-((2-(1-hydroxyethyl)-1H-imidazol-1-yl)methyl)isoxazol-5-yl)phenyl)ethynyl)benzamide] | – | 1 (≈ 2.19 µM) | 4 (≈ 8.76 µM) | 20.3 | – | –
3 | CC(=O)c1ccc(C#Cc2ccc(-c3cc(Cn4ccnc4[C@H](C)O)no3)cc2)cc1 [Example 26, (S)-1-(4-((4-(3-((2-(1-hydroxyethyl)-1H-imidazol-1-yl)methyl)isoxazol-5-yl)phenyl)ethynyl)phenyl)ethan-1-one] | 71.7 | 0.125 (≈ 0.304 µM) | 0.5 (≈ 1.22 µM) | – | – | –
4 | C[C@H](O)c1nccn1Cc1cc(-c2ccc(C#Cc3ccc(CCC(=O)O)cc3)cc2)on1 [Example 27, (S)-3-(4-((4-(3-((2-(1-hydroxyethyl)-1H-imidazol-1-yl)methyl)isoxazol-5-yl)phenyl)ethynyl)phenyl)propanoic acid] | 4.25 | 1 (≈ 2.27 µM) | 2 (≈ 4.53 µM) | – | – | –
5 | C[C@H](O)c1nccn1Cc1cc(-c2ccc(C#Cc3ccc(C(N)=O)nc3)cc2)on1 [Example 28, (S)-5-((4-(3-((2-(1-Hydroxyethyl)-1H-imidazol-1-yl)methyl)isoxazol-5-yl)phenyl)ethynyl)picolinamide] | – | 1 (≈ 2.42 µM) | 2 (≈ 4.84 µM) | 19.9 | – | –
6 | C[C@H](O)c1nccn1Cc1cc(-c2ccc(C#Cc3ccc(OCCO)cc3)cc2)on1 [Example 29, (S)-1-(1-((5-(4-((4-(2-hydroxyethoxy)phenyl)ethynyl)phenyl)isoxazol-3-yl)methyl)-1H-imidazol-2-yl)ethan-1-ol] | 14 | – | – | – | 0.25 (≈ 0.582 µM) | 0.25 (≈ 0.582 µM)
7 | C[C@H](O)c1nccn1Cc1cc(-c2ccc(C#Cc3ccc(C(O)CO)cc3)cc2)on1 (stereo partly drawn) [Example 30, 1-(4-((4-(3-((2-((S)-1-hydroxyethyl)-1H-imidazol-1-yl)methyl)isoxazol-5-yl)phenyl)ethynyl)phenyl)ethane-1,2-diol] | 12.7 | 0.5 (≈ 1.16 µM) | 1 (≈ 2.33 µM) | – | – | –
8 | C[C@H](O)c1nccn1Cc1cc(-c2ccc(C#Cc3ccc(CNC4CCS(=O)(=O)C4)cc3)cc2)on1 (stereo partly drawn) [Example 31] | – | 2 (≈ 3.87 µM) | 4 (≈ 7.74 µM) | 6.06 | – | –
9 | C[C@H](O)c1nccn1Cc1cc(-c2ccc(C#Cc3ccc(Cn4cccn4)cc3)cc2)on1 [Example 33, (S)-1-(1-((5-(4-((4-((1H-pyrazol-1-yl)methyl)phenyl)ethynyl)phenyl)isoxazol-3-yl)methyl)-1H-imidazol-2-yl)ethan-1-ol] | 28.1 | 0.125 (≈ 0.278 µM) | 0.25 (≈ 0.556 µM) | – | – | –
10 | C[C@H](O)c1nccn1Cc1cc(-c2ccc(C#Cc3ccc(CNCCO)cc3)cc2)on1 [Example 34, (S)-2-((4-((4-(3-((2-(1-hydroxyethyl)-1H-imidazol-1-yl)methyl)isoxazol-5-yl)phenyl)ethynyl)benzyl)amino)ethan-1-ol] | – | 1 (≈ 2.26 µM) | 2 (≈ 4.52 µM) | 4.86 | – | –
11 | C[C@H](O)c1nccn1Cc1cc(-c2ccc(C#Cc3ccc(CNCC(N)=O)cc3)cc2)on1 [Example 35, (S)-2-((4-((4-(3-((2-(1-hydroxyethyl)-1H-imidazol-1-yl)methyl)isoxazol-5-yl)phenyl)ethynyl)benzyl)amino)acetamide] | – | 0.25 (≈ 0.549 µM) | 0.5 (≈ 1.1 µM) | 14.9 | – | –
12 | C[C@H](O)c1nccn1Cc1cc(-c2ccc(C#Cc3ccc(CN4CCC(O)CC4)nc3)cc2)on1 [Example 36, (S)-1-((5-((4-(3-((2-(1-hydroxyethyl)-1H-imidazol-1-yl)methyl)isoxazol-5-yl)phenyl)ethynyl)pyridin-2-yl)methyl)piperidin-4-ol] | 8.33 | 2 (≈ 4.14 µM) | 4 (≈ 8.27 µM) | – | – | –
13 | C[C@H](O)c1nccn1Cc1cc(-c2ccc(C#Cc3ccc(CO)nc3)cc2)on1 [Example 37, (S)-1-(1-((5-(4-((6-(hydroxymethyl)pyridin-3-yl)ethynyl)phenyl)isoxazol-3-yl)methyl)-1H-imidazol-2-yl)ethan-1-ol] | 3.55 | 1 (≈ 2.5 µM) | 2 (≈ 4.99 µM) | – | – | –
14 | C[C@H](O)c1nccn1Cc1cc(-c2ccc(C#Cc3cccc(OCC#N)c3)cc2)on1 [Example 38, (S)-2-(3-((4-(3-((2-(1-hydroxyethyl)-1H-imidazol-1-yl)methyl)isoxazol-5-yl)phenyl)ethynyl)phenoxy)acetonitrile] | 50.8 | 0.5 (≈ 1.18 µM) | 1 (≈ 2.36 µM) | – | – | –
15 | C[C@H](O)c1nccn1Cc1cc(-c2ccc(C#Cc3ccc(CC(=O)O)nc3)cc2)on1 [Example 39, (S)-2-(5-((4-(3-((2-(1-hydroxyethyl)-1H-imidazol-1-yl)methyl)isoxazol-5-yl)phenyl)ethynyl)pyridin-2-yl)acetic acid] | 19.9 | 0.5 (≈ 1.17 µM) | 1 (≈ 2.33 µM) | – | – | –
16 | C[C@H](O)c1nccn1Cc1cc(-c2ccc(C#Cc3ccc(CCC(N)=O)nc3)cc2)on1 [Example 40, (S)-3-(5-((4-(3-((2-(1-hydroxyethyl)-1H-imidazol-1-yl)methyl)isoxazol-5-yl)phenyl)ethynyl)pyridin-2-yl)propanamide] | 16.7 | 1 (≈ 2.27 µM) | 4 (≈ 9.06 µM) | – | – | –
17 | C[C@H](O)c1nccn1Cc1cc(-c2ccc(C#Cc3ccc(C(=O)N4CCN(C)CC4)cc3)cc2)on1 [Example 42, (S)-(4-((4-(3-((2-(1-hydroxyethyl)-1H-imidazol-1-yl)methyl)isoxazol-5-yl)phenyl)ethynyl)phenyl)(4-methylpiperazin-1-yl)methanone] | 5.78 | 2 (≈ 4.04 µM) | 4 (≈ 8.07 µM) | – | – | –
18 | CNC(=O)c1ccc(C#Cc2ccc(-c3cc(Cn4ccnc4[C@H](C)O)no3)cc2)cc1 [Example 43, (S)-4-((4-(3-((2-(1-hydroxyethyl)-1H-imidazol-1-yl)methyl)isoxazol-5-yl)phenyl)ethynyl)-N-methylbenzamide] | 36.7 | 1 (≈ 2.34 µM) | 8 (≈ 18.8 µM) | – | – | –
19 | C[C@H](O)c1nccn1Cc1cc(-c2ccc(C#Cc3ccc(OC4CCN(C)CC4)cc3)cc2)on1 [Example 44, (S)-1-(1-((5-(4-((4-((1-methylpiperidin-4-yl)oxy)phenyl)ethynyl)phenyl)isoxazol-3-yl)methyl)-1H-imidazol-2-yl)ethan-1-ol] | 18.6 | 2 (≈ 4.14 µM) | 8 (≈ 16.6 µM) | – | – | –
20 | C[C@H](O)c1nccn1Cc1cc(-c2ccc(C#Cc3ccc(CO)cc3)cc2)on1 [Example 46, (S)-1-(1-((5-(4-((4-(hydroxymethyl)phenyl)ethynyl)phenyl)isoxazol-3-yl)methyl)-1H-imidazol-2-yl)ethan-1-ol] | 23 | 0.25 (≈ 0.626 µM) | 0.5 (≈ 1.25 µM) | – | – | –
21 | C[C@H](O)c1nccn1Cc1cc(-c2ccc(C#Cc3ccc(CN4CCN(C)CC4)cc3)cc2)on1 [Example 48, (S)-1-(1-((5-(4-((4-((4-methylpiperazin-1-yl)methyl)phenyl)ethynyl)phenyl)isoxazol-3-yl)methyl)-1H-imidazol-2-yl)ethan-1-ol] | 9.77 | 2 (≈ 4.15 µM) | 8 (≈ 16.6 µM) | – | – | –
22 | C[C@H](O)c1nccn1Cc1cc(-c2ccc(C#Cc3ccc(CNCCS(C)(=O)=O)cc3)cc2)on1 [Example 49, (S)-1-(1-((5-(4-((4-(((2-(methylsulfonyl)ethyl)amino)methyl)phenyl)ethynyl)phenyl)isoxazol-3-yl)methyl)-1H-imidazol-2-yl)ethan-1-ol] | – | 1 (≈ 1.98 µM) | 4 (≈ 7.93 µM) | 11.1 | – | –
